# Counter-ions that a name gives are not always drawn.
# Target: T1, human pancreatic lipase (hPL) (Homo sapiens, UniProt P16233)
# T1 construct: gene PNLIP
# T1 sequence (P16233 17-465): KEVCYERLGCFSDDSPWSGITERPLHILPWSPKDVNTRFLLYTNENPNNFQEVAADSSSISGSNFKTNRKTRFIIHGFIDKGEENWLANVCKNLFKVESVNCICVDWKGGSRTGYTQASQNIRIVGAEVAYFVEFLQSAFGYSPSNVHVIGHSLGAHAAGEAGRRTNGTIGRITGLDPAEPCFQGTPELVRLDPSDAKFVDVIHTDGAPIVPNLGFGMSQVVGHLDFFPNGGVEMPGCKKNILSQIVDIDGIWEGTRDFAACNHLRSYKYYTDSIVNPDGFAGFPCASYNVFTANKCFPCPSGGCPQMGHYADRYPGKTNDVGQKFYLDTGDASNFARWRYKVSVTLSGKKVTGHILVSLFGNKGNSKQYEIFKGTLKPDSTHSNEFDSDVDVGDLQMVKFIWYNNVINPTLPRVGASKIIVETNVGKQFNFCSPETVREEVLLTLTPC
# Assay: Michaelis-Menten kinetics of fluorogenic substrate hydrolysis (Km)
# Format: biochemical
# Settings: not given
row,Compound,Km [µM]
1,"CCCCCCCCCCCC(=O)Oc1ccc2nc3ccc(=O)cc-3oc2c1 [RLE, 3-oxo-3H-phenoxazin-7-yl dodecanoate]",10.4

# Target: T1, human pancreatic lipase (hPL)
# Assay: RLE-based fluorescence hydrolysis assay, dose-inhibition
# Format: biochemical
# Settings: not given
row,Compound,IC50 [µM]
1,"COc1ccc(-c2cc(=O)c3c(O)cc(O)c(-c4cc(-c5cc(=O)c6c(O)cc(OC)cc6o5)ccc4OC)c3o2)cc1 [h10, sciadopitysin]",1.36
2,"CNC(=O)c1cc(Oc2ccc(NC(=O)Nc3ccc(Cl)c(C(F)(F)F)c3)cc2)ccn1 [f1, sorafenib tosylate]",15.6
3,"O=C(c1ccc(OCCN2CCCCC2)cc1)c1c(-c2ccc(O)cc2)sc2cc(O)ccc12 [d1, raloxifene]",5.63
4,"CC(C)c1cc2c(c(O)c1O)[C@@]13CCCC(C)(C)[C@@H]1C[C@@H]2OC3=O [h9, carnosol]",0.58

# Target: T1, human pancreatic lipase (hPL)
# Assay: not given
# Settings: 10 µM; inhibitor
row,Compound,% of control remaining [%]
1,"COc1ccc(-c2cc(=O)c3c(O)cc(O)c(-c4cc(-c5cc(=O)c6c(O)cc(OC)cc6o5)ccc4OC)c3o2)cc1 [h10, sciadopitysin]",5.25
2,"CNC(=O)c1cc(Oc2ccc(NC(=O)Nc3ccc(Cl)c(C(F)(F)F)c3)cc2)ccn1 [f1, sorafenib tosylate]",44.04
3,"COc1c(O)c(O)cc2oc(-c3ccc(O)c(O)c3)c(O)c(=O)c12 [g2, 2-(3,4-Dihydroxyphenyl)-3,6,7-trihydroxy-5-methoxy-4H-1-benzopyran-4-one]",59.87
4,COc1cc([C@@H]2c3cc4c(cc3[C@@H](O[C@@H]3O[C@@H]5CO[C@@H](C)O[C@H]5[C@H](O)[C@H]3O)[C@H]3COC(=O)[C@H]23)OCO4)cc(OC)c1O [Etoposide],65.05
5,NC(=O)N1c2ccccc2C[C@H](O)c2ccccc21 [Eslicarbazepine],103.44
6,C[C@]12C=CC(=O)C=C1CC[C@@H]1[C@@H]2[C@@H](O)C[C@@]2(C)[C@H]1CC[C@]2(O)C(=O)CO [Prednisolone],82.34
7,COc1ccc(-c2cc(=O)c3c(OC)c(OC)c(OC)c(OC)c3o2)cc1OC [Nobiletin],80.44
8,CC1=C(O)C(=O)C=C2C1=CC=C1[C@@]2(C)CC[C@@]2(C)[C@@H]3C[C@](C)(C(=O)O)CC[C@]3(C)CC[C@]12C [Celastrol],84.16
9,"O=C(c1ccc(OCCN2CCCCC2)cc1)c1c(-c2ccc(O)cc2)sc2cc(O)ccc12 [d1, raloxifene]",4.05
10,CC(C)Cc1ccc(C(C)C(=O)O)cc1 (centres unmarked) [Ibuprofen],103.68
11,CC(C)CCC[C@@H](C)[C@H]1CC[C@H]2[C@@H]3CCC4=CC(=O)CC[C@]4(C)[C@H]3CC[C@]12C [4-Cholesten-3-one],77.59
12,COc1cc(O)c(CC=C(C)C)c(O)c1C(=O)/C=C/c1ccc(O)cc1 [Xanthohumol],81.19
13,CC(=O)O[C@@H]1C[C@H](O)[C@@]23CO[C@@H](O)[C@]1(C)[C@@H]2C[C@@H](O)[C@]1(C)[C@@H]3C(=O)[C@H](OC(C)=O)[C@@]2(C)[C@H](c3ccoc3)C[C@H]3O[C@]321 [Toosendanin],72.37
14,COC(=O)C1=C(C)NC(C)=C(C(=O)OCC(C)C)C1c1ccccc1[N+](=O)[O-] (centres unmarked) [Nisoldipine],75.08
15,Cc1nnc2n1-c1ccc(Cl)cc1C(c1ccccc1)=NC2 [Alprazolam],68.13
16,COc1cc(/C=C/C(=O)CC(=O)/C=C/c2ccc(O)c(OC)c2)ccc1O [Curcumin],75.83
17,"COc1ccc(-c2coc3cc(O)cc(O)c3c2=O)cc1 [5,7-Dihydrox-4'-methoxyisoflavone]",100.90

row,Compound,% of control remaining [%]
1,CC(C)(C)NCC(O)c1cc(O)cc(O)c1 (centres unmarked) [Terbutaline],108.89
2,Nc1ccccc1NC(=O)c1ccc(CNC(=O)OCc2cccnc2)cc1 [Entinostat],102.02
3,O=C1c2c(O)cc(O)cc2O[C@H](c2ccc(O)cc2)[C@H]1O [Dihydrokaempferol],109.31
4,CC(NC(C)(C)C)C(=O)c1cccc(Cl)c1 (centres unmarked) [bupropion hydrochloride],120.79
5,C[C@@H]1O[C@@H](O[C@H]2[C@H](OC(=O)[C@]34CCC(C)(C)C[C@H]3C3=CC[C@@H]5[C@@]6(C)C[C@H](O)[C@H](O[C@@H]7O[C@H](CO)[C@@H](O)[C@H](O)[C@H]7O)C(CO)(CO)[C@@H]6CC[C@@]5(C)[C@]3(C)C[C@H]4O)OC[C@H](O)[C@@H]2O)[C@H](O)[C@H](O)[C@H]1O[C@@H]1OC[C@@H](O)[C@H](O[C@@H]2OC[C@](O)(CO)[C@H]2O)[C@H]1O [Platycodin D],89.14
6,COc1cc2c(=O)c(-c3ccc(O)cc3)coc2cc1O[C@@H]1O[C@H](CO)[C@@H](O)[C@H](O)[C@H]1O [Glycitin],99.85
7,COc1ccc2cc3[n+](cc2c1O)CCc1cc2c(cc1-3)OCO2 [Berberrubine],86.09
8,Cc1ccc(-c2cc(C(F)(F)F)nn2-c2ccc(S(N)(=O)=O)cc2)cc1 [Celecoxib],90.67
9,"CC(C)c1cc2c(c(O)c1O)[C@@]13CCCC(C)(C)[C@@H]1C[C@@H]2OC3=O [h9, carnosol]",4.20
10,COc1cc2c3cc1Oc1c(OC)c(OC)cc4c1[C@@H](Cc1cccc(c1)Oc1ccc(c(O)c1)C[C@@H]3N(C)CC2)N(C)CC4 [Berbamine Hydrochloride],69.86
11,COc1ccc2c(c1)[C@]13CCCC[C@@H]1[C@H](C2)N(C)CC3 [Dextromethorphan],89.61
12,CC1(C)[C@H](C(=O)O)N2C(=O)C[C@H]2S1(=O)=O [Sulbactam sodium],88.89
13,O=C1c2c(O)cc(O)cc2O[C@H](c2cc(O)c(O)c(O)c2)[C@H]1O [Dihydromyricetin],95.62
14,CCOC(=O)C1=C(C)NC(C)=C(C(=O)OC)C1c1cccc(Cl)c1Cl (centres unmarked) [Felodipine],93.02
15,CCC(C)(C)C(=O)O[C@H]1C[C@@H](C)C=C2C=C[C@H](C)[C@H](CC[C@@H]3C[C@@H](O)CC(=O)O3)[C@H]21 [Simvastatin],84.18
16,COc1cc(O)c2c(c1C(=O)/C=C/c1ccc(O)cc1)OC(C)(C)C(O)C2 (centres unmarked) [Xanthohumol L],100.78

# Source: article PMC9953885 (Biosensors, 2023)
